Reference: patent US11673853B2, “Small molecule AMPK activators” (University of Pittsburgh—Of the Commonwealth System of …, priority 2016, dated 2023)

What was measured:
phospho-AMPK = phospho-AMPK / p-ACC immunoblotting in Beas2B cells (in vitro studies); type: cell-based, Human
Protocol: FIG. 3. (A) Beas2b cells were cultured in DMEM 2% media with glucose for 24 h before switching to glucose-free media. Cells were then exposed to either DMSO or Compound 1 (2 μM) in a time course before being collected for immunoblotting. (B) Beas2B cells were exposed to Compound 1 for 18 h at various doses before being collected for immunoblotting. (C) Beas2b cells were cultured in DMEM 2% media with glucose for 24 h before switching to glucose-free media. Cells were then exposed to AICAR at various doses with or without Compound 1 co-treatment. After 18 h, cells were collected before being assayed by immunoblotting.
FIG. 4. (A) Beas2b cells were cultured in DMEM 2% media with glucose for 24 h before switching to glucose-free media. Cells were then exposed to Compound 12 in a dose dependent manner for 18 h before being collected for immunoblotting. (B) Beas2b cells were cultured in DMEM 2% media with glucose for 24 h before Compound 12 treatment in a dose dependent manner. After 18 h, cells were then collected for immunoblotting. (C) Beas2b cells were cultured in DMEM 2% media with glucose for 24 h before switching to glucose-free media. Cells were then exposed to Compound 12 for 18 h before being collected for mRNA analysis. (D) 50K PBMC cells were cultured in 96 well plates before being exposed to Compound 12 for 4 h. Cells were then treated with LPS (10 ng/ml) for additional 2 h. Media were then collected and IL-1b concentration was determined by ELISA.
FIG. 9. (A) Beas2b cells were cultured in DMEM 2% media with glucose for 24 h before switching to glucose-free media. Cells were then exposed to Compound 23 or metformin in a dose dependent manner for 18 h before being collected for immunoblotting. (B) Beas2b cells were cultured in DMEM 2% media with glucose for 24 h before switching to glucose-free media and treated with Compound 12 or Compound 23 in a dose dependent manner. After 6 h, cells were then collected for immunoblotting. (C) Beas2b cells were cultured in DMEM 2% media with glucose for 24 h before switching to glucose-free media and treated with Compound 12 or Compound 23 in a dose dependent manner. After 18 h, cells were then collected for immunoblotting. (D) Beas2b cells were transfected with AMPK phospho mimic T172D or phospho dead T172A mutant for 24 h. Cells were then switched to glucose-free media and exposed to Compound 23 in a dose or time dependent manner before being collected for immunoblotting. (E) Beas2b cells were transfected with control siRNA or Fbxo48 siRNA for 48 h before switching to glucose-free media. Cells were then exposed to Compound 23 in a dose dependent manner before being collected for immunoblotting. (F) Compound 23 chemical structure.
Compound 1 was studied in in vitro assays using Beas2B cells. […]
Compound 23 was tested in in vitro studies using Beas2B cells and compared with metformin.

pAMPK = pAMPK immunoblotting in Beas2B cells (Table 1); type: cell-based; settings: Homo sapiens, BEAS-2B, DMEM media without glucose, compounds 18 h
Protocol: Additional compounds in Table 1 were or can be prepared according to the above-described Examples. Human bronchial epithelial cells (Beas2B) were seeded in 6-well plates for 18 h. Cells were then exposed to DMEM media without glucose and compounds at various concentrations for an additional 18 h before being collected for immunoblotting.

Diet-induced obese mice = Diet-induced obese mice study, 14 days dosing; type: in vivo; settings: once daily for 14 days; BC1618 8 or 40 mg/kg/d
Protocol: FIG. 12. Diet-induced obese mice were fed a high-fat diet for 19 weeks and then injected with vehicle or drug once daily for 14 days. Daily body weights (in grams) of the mice are shown.
Diet-induced obese mice arrived from Jackson Labs and recovered two weeks in satellite housing before study. Mice were 25 weeks old and fed a high-fat diet for 19 weeks at the time of study. Body weight, fat and lean mass were measured and mice were grouped in order to match body weights at ˜46.5 g average per group prior to study. Following the acute dosing trial, mice were injected with vehicle or drug 1× daily between noon and 2 pm for 14 days (BC1618-L (low dose)=8 mg/kg/d, BC1618-H (high dose)=40 mg/kg/d). Body weight was recorded daily (FIGS. 12-15). FIG. 12 and FIG. 13 show body weight in grams and FIG. 14 and FIG. 15 show body weight as a percentage of body weight on day 0 (DO).
FIGS. 16-19 show the change (A) in body weight (BW) from day 0 to day 14 expressed as change in grams (FIG. 16 and FIG. 17) or as percent change from day 0 (FIG. 18 and FIG. 19).
Body composition was measured at DO in the body weight matched animals and again at day 14 (D14). Data in FIGS. 20-23 represent the change in fat mass from DO to D14 expressed as grams (FIG. 20 and FIG. 21) or as percent change (FIG. 22 and FIG. 23).
Data in FIGS. 24-27 represent the change in lean mass from DO to D14 expressed as grams (FIG. 24 and FIG. 25) and as percent change (FIG. 26 and FIG. 27). Overall there appears to be a modest effect of vehicle and drug to reduce lean mass over 14 days, but no differences between groups. Changes in BW over 14 days therefore reflect changes in fat mass and not lean mass.

mice = assay: Cecal ligation and puncture (CLP)-induced sepsis model; type: in vivo; settings: 10 mg/kg i.p., 24 h
Protocol: FIG. 6. Mice were anesthetized prior to the cecal ligation and puncture (CLP) procedure. Compound 12 (10 mg/kg) was then administered immediately afterwards through an intraperitoneal (i.p.) injection. After 24 h, mice were euthanized and blood was collected for assays of IL-6, TNF, and IL1-β levels. Peritoneal fluid was obtained for determination of bacterial counts after CLP in mice. The lungs were also lavaged with saline, harvested, and then homogenized. Lavage cytokine secretion (C-E), protein (A), cell counts (B) were measured. The data represent n=4-5 mice/group, *P<0.05 Compound 12 versus vehicle. Presence of AMPK and pAMPK was also determined (F).
Compound 12 was examined in a model of cecal ligation and puncture (CLP)-induced sepsis.

Row | SMILES | level of AMPK T172D phospho mimic mutant (phospho-AMPK; Beas2b transfected with T172D mutant, glucose-free media) | pAMPK and pACC levels after Fbxo48 knockdown (phospho-AMPK; Beas2b, Fbxo48 siRNA 48 h, glucose-free media) | activity on pAMPK compared to Compound 12 (phospho-AMPK; Beas2b, glucose-free media, 6 h and 18 h) | concentration range increasing pAMPK phosphorylation and downstream substrate ACC phosphorylation (phospho-AMPK; Beas2b, glucose-free media, 18 h) | IC50 (pAMPK) [µg/mL] | body weight loss (daily body weight) (Diet-induced obese mice) | change in body weight from day 0 to day 14 (Diet-induced obese mice) | change in fat mass from D0 to D14 (Diet-induced obese mice) | concentration effectively increasing phospho-AMPK and downstream p-ACC levels (phospho-AMPK; Beas2b, with or without glucose, 18 h) [nM] | CLP-induced lung injury (BAL cytokines, protein and cell counts) (mice) | CLP-induced secretion of circulating proinflammatory cytokines (IL-6, TNF, IL1-β) (mice) | bacterial count (mice; peritoneal fluid)
1 | OC(COc1ccc(C(F)(F)F)cc1)CN(Cc1ccccc1)Cc1ccccc1 (stereo not shown) [Compound 23] | drastically increases | not able to further activate the pathway | comparable or slightly improved activity | submicromolar | < 1 | effect of AICAR and BC1618 on body weight loss | an effect due to AICAR or BC1618 | apparent additive effect | – | – | – | –
2 | OC(COc1ccc(F)cc1)CN(Cc1ccccc1)Cc1ccccc1 (stereo not shown) [Compound 12] | – | – | – | – | < 1 | – | – | – | 100 to 500 | effectively reduce severities | significantly attenuated | without affecting bacterial count
